Laboratory results reported in patent US12692238B2, “Substituted pyridazinone herbicides” (FMC CORPORATION, priority 2020, dated 2026).

What was measured:
Type in all cases: in vivo
[1] = test system: foxtail, green (green foxtail, Setaria viridis); assay: Test A postemergence, foxtail, green; settings: 10 days
Excerpt: (§1) Seeds of plant species selected from barnyardgrass (Echinochloa crus-galli), blackgrass (Alopecurus myosuroides), corn (Zea mays), foxtail, giant (giant foxtail, Setaria faberi), foxtail, green (green foxtail, Setaria viridis), goosegrass (Eleusine indica), kochia (Bassia scoparia), oat, wild (wild oat, Avena fatua), palmer amaranth (pigweed, palmer, Amaranthus palmeri), redroot pigweed (Amaranthus retroflexus), ragweed (common ragweed, Ambrosia artemisiifolia), ryegrass, Italian (Italian ryegrass, Lolium multiflorum), and soybean (Glycine max) were planted into a blend of loam soil and sand and treated preemergence with a directed soil spray using test chemicals formulated in a non-phytotoxic solvent mixture which included a surfactant.
(§2) At the same time, plants selected from these crop and weed species and also wheat (Triticum aestivum), galium (catchweed bedstraw, Galium aparine) and horseweed (Erigeron canadensis) were planted in pots containing the same blend of loam soil and sand and treated with postemergence applications of test chemicals formulated in the same manner. Plants ranged in height from 2 to 10 cm and were in the one- to two-leaf stage for the postemergence treatment. Treated plants and untreated controls were maintained in a greenhouse for 10 days, after which time all treated plants were compared to untreated controls and visually evaluated for injury. Plant response ratings, summarized in Table A, are based on a 0 to 100 scale where 0 is no effect and 100 is complete control. A dash (-) response means no test result.

[2] = test system: foxtail, green (green foxtail, Setaria viridis); assay: Test A preemergence, foxtail, green; settings: 0 to 100 scale, 10 days
Excerpt: as §1, §2

[3] = test system: galium (catchweed bedstraw, Galium aparine); assay: Test A postemergence, galium; settings: Galium, post-emergence, 240 h, 10 days, read-out: Plant response rating, Galium; for pest or weed control at 31 g/ha: 31 g ai/ha, postemergence, 0 to 100 scale (0 no effect, 100 complete control); for pest or weed control at 125 g/ha: Postemergence, 125 g ai/ha, 0 to 100 scale
Summary of the method: (§3)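 Crop and weed plants grown in loam–sand mix were treated with compound in non-phytotoxic solvent plus surfactant, either as a preemergence soil spray after sowing or postemergence at one to two leaves. Injury ratings, 0 to 100 relative to untreated controls, were taken after 10 days.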

corn (Zea mays) = assay: Test A postemergence, corn; settings: Zea mays, post-emergence, 240 h, Postemergence, 0 to 100 scale, 10 days; for Corn plant response rating (crop injury, 0 = no effect, 100 = complete kill) at 31 g/ha: 31 g ai/ha; for Corn plant response rating (crop injury, 0 = no effect, 100 = complete kill) at 125 g/ha: 125 g ai/ha
Summary of the method: as §3

[4] = test system: barnyardgrass (Echinochloa crus-galli); assay: Test A preemergence, barnyardgrass; settings: 10 days
Summary of the method: as §3

[5] = test system: barnyardgrass (Echinochloa crus-galli); assay: Test B flooded paddy test, barnyardgrass; settings: Echinochloa crus-galli; 250 g ai/ha, Flood; visually evaluated after 10 to 14 days; read-out: Plant response rating, Barnyardgrass (0 to 100 scale where 0 is no effect and 100 is complete control)
Summary of the method: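 Application into floodwater (3 cm over soil) at the 2-leaf stage, with the depth held constant, followed by greenhouse growth for 10–14 days. Percent control was estimated visually versus controls, where 100 is complete control.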

[6] = 31 g ai/ha, postemergence, 0 to 100 scale (0 no effect, 100 complete control)
[7] = Postemergence, 125 g ai/ha, 0 to 100 scale
[8] = 125 g ai/ha, 0 to 100 scale (0 no effect, 100 complete control)

SMILES	Plant response rating, Foxtail, Green [1, 6]	Plant response rating, Foxtail, Green [1, 7]	Plant response rating, Foxtail, Green ([2]; 31 g ai/ha)	Plant response rating, Foxtail, Green ([2]; 125 g ai/ha)	pest or weed control at 31 g/ha [3]	pest or weed control at 125 g/ha [3]	Corn plant response rating (crop injury, 0 = no effect, 100 = complete kill) at 31 g/ha (corn (Zea mays))	Corn plant response rating (crop injury, 0 = no effect, 100 = complete kill) at 125 g/ha (corn (Zea mays))	Plant response rating, Barnyardgrass ([4]; 31 g ai/ha, 0 to 100 scale)	Plant response rating, Barnyardgrass [4, 8]	pest or weed control at 250 g/ha [5]
CC(=O)OCOc1c(Cl)nn(C)c(=O)c1-c1c(C)sc2cccc(Cl)c12 [Compound 1, 5-[(acetyloxy)methoxy]-6-chloro-4-(4-chloro-2-methylbenzo[b]thien-3-yl)-2-methyl-3(2H)-pyridazinone]	0	10	0	10	70%	90%	0%	0%	0	0	0%
CC(=O)OCOc1c(C)nn(C)c(=O)c1-c1c(Br)sc2ccc(F)cc12 [Compound 2, 5-[(acetyloxy)methoxy]-4-(2-bromo-5-fluorobenzo[b]thien-3-yl)-2,6-dimethyl-3(2H)-pyridazinone]					90%	100%	0%	30%	0	0	0%
CC(=O)OCOc1c(Cl)nn(C)c(=O)c1-c1c(C)ccc2ccc(C)cc12 [Compound 3, 5-[(Acetyloxy)methoxy]-6-chloro-4-(2,7-dimethyl-1-naphthalenyl)-2-methyl-3(2H)-pyridazinone]					100%	100%	0%	20%	60	100	98%
CC(=O)OCOc1c(Cl)nn(C)c(=O)c1-c1c(C)ccc2ccccc12 [Compound 5, 5-[(acetyloxy)methoxy]-6-chloro-2-methyl-4-(2-methyl-1-naphthalenyl)-3(2H)-pyridazinone]	40	80	50	90	100%	100%	0%	10%	80	100	40%
